# Experimental data published in publication PMC6381106 (Scientific Reports, 2019).
# No end group written: not given here.
# B1: composite peptide KCF18 (peptide)
# peptide: KCRKEMFKQKLPYSTVYF
# notes: designed 18-residue composite peptide: KCRKEM from TNFR1, FKQKLP from IL-1R, YSTVYF from the IL-6 receptor; also called designed peptide KCF18; source: synthetic peptide (GeneMark, GMbiolab Co., Ltd., Taiwan; solid phase)
# Tests used:
# [1] = test system: TNF-α secretion in THP-1 cells; experiment: ELISA of IL-1β-induced TNF-α secretion in THP-1; assay type: cell-based, human
# Excerpt: In addition, the decline in cytokine–receptor interactions might suppress cytokine mRNA expression and cytokine production in endothelial cells and monocytes. Treatment with KCF18 suppressed TNF-α mRNA expression following cytokines TNF-α, IL-1β and IL-6 stimulation (Fig. 6). To assess the efficacy of KCF18, we performed the RT-qPCR in THP-1 and HMEC-1 cells and ELISA assay for detecting TNF-α secretion including a TNF-α blocking antibody (R&D systems, USA)[57]–[59] as an additional condition in their experiments. […] We further analyze whether the KCF18 could suppress IL-1β induced TNF-α or TNF-α induced IL-1β expressions by ELISA assay (Supporting Figure S7). […] Since TNF-α blocking antibody captures the TNF-α in the conditioned medium, it may interfere the detection of TNF-α by ELISA (Supporting Figure S7). In summary, indeed, KCF18 expresses the ability to reduce cytokines induced TNF-α mRNA and protein expression. […] We also assessed the ability of KCF18 to inhibit TNF-α-mediated p65 nuclear translocation and endothelial ICAM-1 expression (Supporting Figure S8). […]
# Figure S7: Peptide KCF18 and TNF-a antagonist antibody affect the protein expression of cytokine s-induced TNF-α an d I L-1b in TH P-1 cells. TNF-α and IL-1b secretion levels induced by (A) IL-1b and (B) TNF-α in THP-1 were determined using ELISA assays. […]
# [2] = test system: white blood cell infiltration in the peritoneal cavity, BABL/c mice; experiment: Thioglycollate-induced acute peritonitis model; assay type: in vivo, mouse; conditions: counts at 24 h
# Description: The animal experiment was used 8- to 10-week-old male BABL/c mice to be the animal model. These mice were purchased from the National Laboratory Animal Breeding and Research Center, Taipei. The mice were housed in a temperature-controlled, light-cycled facility. Peritonitis was induced by an intraperitoneal injection of 4% (w/v) thioglycollate in 1 ml of sterile saline (Sigma–Aldrich, USA). Treatment with saline or peptides (5 mg/kg) was performed 4 h after the administration of thioglycollate by intravenous injection. At 24 h after thioglycollate injection, mice were killed by exposure to CO2, and 5 ml of HBSS was injected into the peritoneal cavity. Cells were obtained by aspirating peritoneal lavage. Differential cell counts were determined using a Hematology Analyzer (KX-21N; Sysmex, USA).
# [3] = test system: TNF-α mRNA expression in HMEC-1 cells; experiment: qPCR of cytokine-induced TNF-α mRNA in HMEC-1; assay type: cell-based, human; conditions: qPCR relative to GAPDH
# Description: (§1) Human micro-vascular endothelial cells-1 (HMEC-1, from American Type Culture Collection Manassas, USA) was cultured in MCDB 131 medium (Sigma, USA) with 15% fetal bovine serum (FBS; Sigma, USA). The medium was supplemented with 1% L-glutamine, 500 µg/ml streptomycin (Biowest, USA), 500 units/ml penicillin (Biowest, USA), 1 μg/ml hydrocortisone (Sigma, USA) and 10 ng/ml Epidermal Growth Factor (ProSpec, USA). The human acute monocytic leukemia cells (THP-1 cells) obtained from the Bioresource Collection and Research Center (Hsinchu, Taiwan) were cultivated in the RPMI-1640 medium (Invitrogen, USA) with 10% FBS. THP-1 were differentiated to macrophage by […] Phorbol 12-myristate 13-acetate (PMA; Sigma, USA) for 24 hours before peptides treatment.
# (§2) Cells were grown to confluence in 6-cm^2 culture plates. Peptides were incubated with TNF-α (20 ng/ml) for 1 h and then treated the cells for 4 h. […] An aliquot (5 µg) of purified RNA was reverse transcribed into first-strand complementary DNA (cDNA) with a 2720 Thermal Cycler (Applied Biosystems, Grand Island, NY, USA), 200 U/μl M-MLV reverse-transcriptase (Invitrogen) and […] oligo(dT)-adapter primers (Invitrogen) in a 20 μl reaction mixture. […] Quantitation of gene expression was conducted relative to GAPDH expression levels.
# [4] = test system: TNF-α mRNA expression in THP-1 cells; experiment: qPCR of cytokine-induced TNF-α mRNA in THP-1; assay type: cell-based, human; conditions: qPCR relative to GAPDH; TNF-α blocking antibody 1 μg/ml, peptide 500 nM; three independent experiments (Figure S6A)
# Description: as §1, §2
# [5] = test system: IL-6-induced adhesion of THP-1 to HMEC-1 cells; experiment: Monocyte binding assay, IL-6-induced THP-1 adhesion to HMEC-1; assay type: cell-based, human; conditions: various concentrations, 1 h pretreatment, then 20 ng/ml IL-6 18 h; three independent experiments (Figure S4)
# Description: as §1
# (§3) To perform the test of monocyte adherence to endothelial cells monolayers, the HMEC-1 cell monolayers were cultivated on 24-well plates under serum-starvation condition prior to the monocyte binding assay. The peptides were added to the HMEC-1 cells for one hour prior to the activation by 20 ng/ml TNF-α (Sigma, USA), IL-1β (GOLDBIO, USA) and IL-6 (GOLDBIO, USA) for 18 hours. […] The adhered monocytes were detected and photographed (five images per well) by fluorescent microscopy and the amount of stuck THP-1 cells were counted by the software AlphaImager 2200 (Alpha Innotech, USA).
# [6] = test system: TNF-α-induced adhesion of THP-1 to HMEC-1 cells; experiment: Monocyte binding assay, TNF-α-induced THP-1 adhesion to HMEC-1; assay type: cell-based, human; conditions: various concentrations, 1 h pretreatment, then 20 ng/ml TNF-α 18 h; three independent experiments (Fig. 4D, Figure S4)
# Description: as §1, §3
# [7] = test system: IL-1β-induced adhesion of THP-1 to HMEC-1 cells; experiment: Monocyte binding assay, IL-1β-induced THP-1 adhesion to HMEC-1; assay type: cell-based, human; conditions: various concentrations, 1 h pretreatment, then 20 ng/ml IL-1β 18 h; three independent experiments (Figure S4)
# Description: as §1, §3
# IL-6 = biological target: T1, IL-6 (Homo sapiens, UniProt P05231); experiment: SPR binding to immobilized IL-6 (Biacore T200); conditions: CM5 chip, IL-6 immobilized (approximately 2000 RU), single cycle, 2, 10, 25, 50, 100 μM peptide, 10 μl/min, 25 °C, monovalent binding model, read-out: equilibrium dissociation KD
# T1 construct: purchased GOLDBIO.COM, USA 1110-06
# T1 sequence (P05231 30-212): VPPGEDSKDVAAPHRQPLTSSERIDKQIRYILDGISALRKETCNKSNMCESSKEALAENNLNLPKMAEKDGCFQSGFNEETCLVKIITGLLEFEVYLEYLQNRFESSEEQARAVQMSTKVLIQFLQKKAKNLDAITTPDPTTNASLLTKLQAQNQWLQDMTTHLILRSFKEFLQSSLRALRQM
# Description: The recombinant proteins of TNF-α (catalog^#1130-01), IL-1β (catalog^#1110-01B), and IL-6 (catalog^#1110-06) were purchased from the GOLDBIO.COM, USA.
# The peptide KCF18 predicted from molecular docking and MM/PBSA binding free energy calculations were synthesized to confirm whether the peptide can bind to the pro-inflammatory cytokines by using SPR measurements. A Biacore T200 workstation (GE Healthcare, USA) was used for SPR detection. These cytokines (250 μg/ml TNF-α and 400 μg/ml IL-6) were diluted into 10 mM sodium acetate buffer at pH 4.0 and immobilized onto a CM5 sensor chip using amine coupling (EDC-NHS) for 210 secs at a flow rate of 10 μl/min. Approximately 5000 and 2000 response units (RU) of cytokines TNF-α and IL-6 were immobilized on the sensor chip, respectively. The flow channel-1 also treated the EDC-NHS as a reference to reduce the non-specific binding between dextran and peptides. […] The complexes were allowed to associate for 180 secs and then to dissociate for 90 secs. Surfaces were regenerated with an injection of 2 mM MgCl2 at a flow rate of 30 µl/min for 30 secs. A monovalent binding model was used to generate and fit the equilibrium binding curves for each peptide to determine the KD of the binding of peptide KCF18 with the pro-inflammatory cytokines.
# HMEC-1 cells = experiment: Cell cytotoxic assay (WST-1); assay type: cell-based, human; conditions: WST-1, 24 and 48 hours, 0.5 μM to 5 μM peptide (Figure S5)
# Description: as §1
# To assess whether the peptide KCF18 is toxic to the endothelial cells, 1 × 10^4 cells were placed into 96-well micro-plates and incubated for 2 hours for adherence. After adhesion, the medium with various concentrations of peptides (0.5 μM to 5 μM) were added to the wells. After 24 and 48 hours, the HMEC-1 cells were washed with Hank’s balanced salt solution and the survivals of HMEC-1 were detected by WST-1 assay kit (Roche, USA). The experiment was assessed in quadruplicate and repeated three times.
# [8] = biological target: T2, interleukin-6 (IL-6), recombinant (UniProt P05231 30-212); experiment: SPR; Biacore T200; cytokine (about 5000 RU TNF-α, about 2000 RU IL-6) amine-coupled to a CM5 chip; peptide flowed over, single cycle kinetics, KCF18 at 2, 10, 25, 50 and 100 μM, 10 μl/min, 25 °C; steady-state binding isotherm fitted with a monovalent binding model; conditions: both partners purified
# T2 construct: IL-6, bought recombinant protein; The simulations used human IL-6 (PDB 2IL6 with a modelled N-terminus); The bought product is probably mature human IL-6 (surmise); Amine-coupled to a CM5 chip for SPR; source: bought: GOLDBIO.COM, USA (catalog #1110-06)
# [9] = biological target: T3, tumor necrosis factor-α (TNF-α), recombinant (UniProt P01375 77-233); experiment: as above; conditions: both partners purified
# T3 construct: TNF-α, bought recombinant protein; The bought product is probably the soluble mature human form (surmise); Amine-coupled to a CM5 chip for SPR; source: bought: GOLDBIO.COM, USA (catalog #1130-01)
# T3 sequence (P01375 77-233): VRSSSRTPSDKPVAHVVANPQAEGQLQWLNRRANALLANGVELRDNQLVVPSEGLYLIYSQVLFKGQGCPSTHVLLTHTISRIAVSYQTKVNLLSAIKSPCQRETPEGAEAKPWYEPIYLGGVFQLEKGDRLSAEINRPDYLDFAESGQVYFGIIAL
molecule,measurement,setting,value
"KCAKEMFAQKLPYSAVYF [mKCF18, mutant peptide of KCF18]",IL-1β-induced TNF-α expression in THP-1 (in words),"[1]; 20 ng/ml IL-1β, pretreatment with peptide, relative to cell lysate concentration, three independent experiments (Figure S7A)",could not inhibit IL-1β induced TNF-α expression
same,"WBC infiltration, comparison of mKCF18 with KCF18 (in words)","[2]; i.v. 4 h after i.p. thioglycollate, n = 3 for each group (Figure S9)",worse than KCF18 peptide
same,"TNF-α-induced TNF-α mRNA expression in HMEC-1, antibody comparison (in words)","[3]; TNF-α blocking antibody 1 μg/ml, peptide 500 nM, three independent experiments (Figure S6B)",had no inhibitory effect on TNF-α induced TNF-α mRNA expression in both cells
same,"TNF-α-induced TNF-α mRNA expression in THP-1, antibody comparison (in words)",[4],had no inhibitory effect on TNF-α induced TNF-α mRNA expression in both cells
"IL-1β: recombinant IL-1β (GOLDBIO), used as stimulus [reference compound]",induction of TNF-α secretion in THP-1,[1]; 20 ng/ml IL-1β as stimulus,2 fold
"CPLNGSTVYGHLRHCLSCSGTMVKF [CF25, a random peptide with 25 amino acids, negative control]",effect on IL-6-induced monocyte binding to HMEC-1 (in words),[5],could not repress cytokine-increased monocyte binding to HMEC-1 cells
same,total white blood cell infiltration in the peritoneal cavity (in words),"[2]; 5 mg/kg i.v. 4 h after i.p. 4% thioglycollate, mean ± SEM, n = 5 KCF18, n = 7 CF25, n = 6 control, *P < 0.05 vs control (Fig. 7)",had no potential anti-inflammatory effect
same,TNF-α-induced TNF-α mRNA expression in HMEC-1 (in words),"[3]; peptide incubated with TNF-α (20 ng/ml) 1 h, cells treated 4 h, three independent experiments (Fig. 6A)",had no inhibitory effect on TNF-α-induced TNF-α mRNA expression
same,effect on TNF-α-induced monocyte binding to HMEC-1 (in words),[6],could not repress cytokine-increased monocyte binding to HMEC-1 cells
same,effect on IL-1β-induced monocyte binding to HMEC-1 (in words),[7],could not repress cytokine-increased monocyte binding to HMEC-1 cells
KCRKEMFKQKLPYSTVYF [KCF18],Kd,IL-6,111 µM
same,HMEC-1 cell viability vs control cells (in words),HMEC-1 cells,no important discrepancy was noticed in cell viability among control cells and peptide-treated cells
B1,Kd,[8],112 µM
same,Kd,[9],60.9 µM
